In patent publication US20100204243A1, “Process for the Preparation of Poly DL-Lactide-Co-Glycolide Nanoparticles Having Antitubercular Drugs Encapsulated Therein” (priority 2005, published 2010):
Values after ≈ are worked out from the molar mass of the structure shown.

Key:
[1] = Stability of ethambutol in the presence of isoniazid; assay type: physicochemical
Description: 765/Del/2003. However, a disadvantage associated therewith is that due to its unstability properties, ethambutol would degrade.

[2] = tested on: M. tuberculosis; details: cited from earlier work

## CC[C@@H](CO)NCCN[C@@H](CC)CO [ethambutol]
[1]
  stability in the presence of isoniazid: highly unstable
[2]
  minimum inhibitory concentration (MIC): 1.5 µg/mL (≈ 7.34 µM)
